Test results from PubChem BioAssay (NCI).
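96-well plates; 48 h exposure; 5 concentrations. Endpoints by linear interpolation between flanking doses. Not reached: highest tested concentration assigned. GI50 = concentration required for 50% inhibition of growth. The concentration for full growth arrest is given as TGI.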

Tests used:
Assay in all cases: NCI anticancer screen, dose series, 48 h
[1] = system: 786-0 renal
[2] = system: A498 renal
[3] = system: ACHN renal
[4] = system: BT-549 breast
[5] = system: CAKI-1 renal
[6] = system: CCRF-CEM leukemia
[7] = system: COLO 205 colon
[8] = system: EKVX NSCLC
[9] = system: HCC-2998 colon
[10] = system: HL-60(TB) leukemia
[11] = system: HOP-62 NSCLC
[12] = system: HOP-92 NSCLC
[13] = system: HS 578T breast
[14] = system: HT29 colon
[15] = system: IGROV1 ovarian
[16] = system: K-562 leukemia
[17] = system: KM12 colon
[18] = system: LOX IMVI melanoma
[19] = system: MALME-3M melanoma
[20] = system: MCF7 breast
[21] = system: MOLT-4 leukemia
[22] = system: NCI-H226 lung
[23] = system: NCI-H23 lung
[24] = system: NCI-H460 lung
[25] = system: NCI-H522 lung
[26] = system: OVCAR-3 ovarian
[27] = system: OVCAR-4 ovarian
[28] = system: OVCAR-5 ovarian
[29] = system: OVCAR-8 ovarian
[30] = system: PC-3 prostate
[31] = system: RXF 393 renal
[32] = system: SF-268 CNS
[33] = system: SF-295 CNS
[34] = system: SF-539 CNS
[35] = system: SK-MEL-2 melanoma
[36] = system: SK-MEL-28 melanoma
[37] = system: SK-MEL-5 melanoma
[38] = system: SK-OV-3 ovarian
[39] = system: SN12C renal
[40] = system: SNB-19 CNS
[41] = system: SNB-75 CNS
[42] = system: SR leukemia
[43] = system: T-47D breast
[44] = system: TK-10 renal
[45] = system: U251 CNS
[46] = system: UACC-257 melanoma
[47] = system: UACC-62 melanoma

## ClC(Cl)c1nc(-c2ccccc2)n2nc(-c3ccccc3)cc2n1
[1]
  GI50: 8.7 µM
  TGI: > 100 µM
[2]
  GI50: 1310 nM
  TGI: 2760 nM
[3]
  GI50: 572 nM
  TGI: 3.1 µM
[4]
  GI50: > 100 µM
  TGI: > 100 µM
[5]
  GI50: 1600 nM
  TGI: 7.13 µM
[6]
  GI50: > 100 µM
  TGI: > 100 µM
[7]
  GI50: 778 nM
  TGI: 3.42 µM
[8]
  GI50: 1940 nM
  TGI: 5.75 µM
[9]
  GI50: 573 nM
  TGI: 2050 nM
[10]
  GI50: 1650 nM
  TGI: 7.69 µM
[11]
  GI50: 586 nM
  TGI: 5.6 µM
[12]
  GI50: 1410 nM
  TGI: 5.9 µM
[13]
  GI50: 1910 nM
  TGI: 6.46 µM
[14]
  GI50: 442 nM
  TGI: > 100 µM
[15]
  GI50: 3.06 µM
  TGI: > 100 µM
[16]
  GI50: 2590 nM
  TGI: > 100 µM
[17]
  GI50: 696 nM
  TGI: 2380 nM
[18]
  GI50: > 100 µM
  TGI: > 100 µM
[19]
  GI50: 3.3 µM
  TGI: > 100 µM
[20]
  GI50: 1080 nM
  TGI: > 100 µM
[21]
  GI50: 3.33 µM
  TGI: > 100 µM
[22]
  GI50: 48 µM
  TGI: > 100 µM
[23]
  GI50: 1420 nM
  TGI: 4.09 µM
[24]
  GI50: 411 nM
  TGI: 1870 nM
[25]
  GI50: 3.63 µM
  TGI: > 100 µM
[26]
  GI50: 1040 nM
  TGI: 2680 nM
[27]
  GI50: 1650 nM
  TGI: 5.64 µM
[28]
  GI50: 2310 nM
  TGI: 6.44 µM
[29]
  GI50: 1730 nM
  TGI: > 100 µM
[30]
  GI50: 1660 nM
  TGI: 4.73 µM
[31]
  GI50: 533 nM
  TGI: 2380 nM
[32]
  GI50: 2280 nM
  TGI: > 100 µM
[33]
  GI50: 1830 nM
  TGI: 5.66 µM
[34]
  GI50: 1780 nM
  TGI: 5.57 µM
[35]
  GI50: 31.6 µM
  TGI: > 100 µM
[36]
  GI50: 1650 nM
  TGI: 3.1 µM
[37]
  GI50: > 100 µM
  TGI: > 100 µM
[38]
  GI50: 2700 nM
  TGI: 9.61 µM
[39]
  GI50: > 100 µM
  TGI: > 100 µM
[40]
  GI50: 1550 nM
  TGI: 6.85 µM
[41]
  GI50: 1120 nM
  TGI: 5.24 µM
[42]
  GI50: 1020 nM
  TGI: 5.61 µM
[43]
  GI50: 2130 nM
  TGI: > 100 µM
[44]
  GI50: 1870 nM
  TGI: 5.7 µM
[45]
  GI50: 758 nM
  TGI: 6.44 µM
[46]
  GI50: 2100 nM
  TGI: 5.19 µM
[47]
  GI50: 3.5 µM
  TGI: > 100 µM
